Results published in ChEMBL document CHEMBL3507680, “University of Dundee, Gates Library screen for HepG2 cell viability”.

Experiment: Human HepG2 cell viability assay in 384 well format
Type: toxicity, cell-based
Set-up: dose 125 nL, time 70.5 hour; concentration not given beside the values
Settings: HepG2 cells, read-out: Inhibition

## Cc1ncc2c(n1)CCCC2NC(=O)c1cnn(Cc2ccccc2)c1 (stereo not drawn)
  cytotoxicity at 70.5 h: -12.8%

## CC(=O)N1CCC2(CCCN(S(=O)(=O)c3ccccc3)C2)C1 (stereo not drawn)
  cytotoxicity at 70.5 h: 20%

## CC1CCN(c2ccc(=O)n(CC(=O)NCCc3ccccc3)n2)CC1
  cytotoxicity at 70.5 h: 5.19%

## COCC1CN(CCc2ccc(OC)c(OC)c2)Cc2c1cnn2C (stereo not drawn)
  cytotoxicity at 70.5 h: -8.2%

## COCc1noc(C2(c3cccc(Cl)c3)CCOCC2)n1
  cytotoxicity at 70.5 h: 26.5%

## COC(=O)Cc1cccc(NC(=O)Cc2cc(C)[nH]n2)c1
  cytotoxicity at 70.5 h: 21.3%

## CNc1cncc(C2CCCN(S(C)(=O)=O)C2)n1 (stereo not drawn)
  cytotoxicity at 70.5 h: 0.632%

## CN(C)CC1COCCN1C(=O)C1(c2cccs2)CCCC1 (stereo not drawn)
  cytotoxicity at 70.5 h: 0.993%

## CCc1nc(CN(C)C2CCN(Cc3nc(C4CC4)no3)C2)no1 (stereo not drawn)
  cytotoxicity at 70.5 h: 31.8%

## COc1ccc2c(c1)nc1n2[C@@H](CNCc2ccccc2)COC1
  cytotoxicity at 70.5 h: 10.1%

## O=C(c1cc2ccccc2[nH]1)N1CCCCC1Cn1cccn1 (stereo not drawn)
  cytotoxicity at 70.5 h: -1.58%

## CN1CCC2(COCc3cnc(-c4ccccc4)nc32)C1 (stereo not drawn)
  cytotoxicity at 70.5 h: -6.86%

## O=C(NCc1nncn1C1CC1)Nc1ccc(OC2CCC2)c(F)c1
  cytotoxicity at 70.5 h: -1.51%

## CCc1nc2c(NCC3COc4cc(OC)ccc4C3)ncnc2o1 (stereo not drawn)
  cytotoxicity at 70.5 h: -5.75%

## O=C1CNc2ncnc(N3CCN(Cc4ccccc4)CC3)c2N1
  cytotoxicity at 70.5 h: 12.6%

## CC(C)c1n[nH]c(C2CN(C(=O)C3=COCC3)CCO2)n1 (stereo not drawn)
  cytotoxicity at 70.5 h: -3.87%

## O=C(NCC1CCN(Cc2cc3ccccc3[nH]2)C1)C1CCCCC1 (stereo not drawn)
  cytotoxicity at 70.5 h: -19.6%

## COc1cc(CO)c(OC)c2c1OCO2
  cytotoxicity at 70.5 h: -8.39%

## CCO[C@@H]1CCN(C(=O)c2ccc[nH]2)[C@@H]1Cc1cnn(C)c1
  cytotoxicity at 70.5 h: -2.67%

## Cc1ccc(C(NC(=O)CN2CCc3cncnc3C2)C2CC2)cc1 (stereo not drawn)
  cytotoxicity at 70.5 h: -13.1%

## CCCNC(=O)c1cccc(CNCc2csc(CC)n2)c1
  cytotoxicity at 70.5 h: -106%

## CCC(OC)C(=O)NCC1CCN(c2cnn(C)c(=O)c2)CC1 (stereo not drawn)
  cytotoxicity at 70.5 h: -3.42%

## CCOCCN1CCN(c2ncccc2C#N)CC1CC (stereo not drawn)
  cytotoxicity at 70.5 h: -3.73%

## COc1ccc(-c2cc(C(=O)Nc3nc[nH]n3)[nH]n2)cc1
  cytotoxicity at 70.5 h: -12.1%

## Cc1nc(CN2CCCC2c2noc(C3CC3)n2)oc1C (stereo not drawn)
  cytotoxicity at 70.5 h: -9.58%

## CC(=O)N(CCc1nc(-c2cc(C(N)=O)co2)cs1)C(C)C
  cytotoxicity at 70.5 h: 2.32%

## Cc1cccc(COC2COC3(CCN(S(C)(=O)=O)CC3)C2)n1 (stereo not drawn)
  cytotoxicity at 70.5 h: -0.691%

## Cc1nc(CNC(=O)NCC(O)c2ccc(F)c(F)c2)cs1 (stereo not drawn)
  cytotoxicity at 70.5 h: 1.43%

## c1cn(-c2ccc(N3CCC(NC4CC4)CC3)cc2)cn1
  cytotoxicity at 70.5 h: -14.2%

## CCC1COCCN1C(=O)NCc1nccn1Cc1ccccc1 (stereo not drawn)
  cytotoxicity at 70.5 h: -2.58%

## Cc1nc(CN2CCN(S(=O)(=O)N3CCCCC3)CC2)oc1C
  cytotoxicity at 70.5 h: -4.75%

## Cc1ccc(CN2C(=O)OCC2CO)c2ccccc12 (stereo not drawn)
  cytotoxicity at 70.5 h: -6.41%

## O=C(N[C@H]1CN(C2CCOCC2)C[C@@H]1C1CC1)c1ccon1
  cytotoxicity at 70.5 h: -4.68%

## CN(C)c1ncccc1CNC(=O)N1CCCC1CN1CCCC1 (stereo not drawn)
  cytotoxicity at 70.5 h: 24.9%

## COc1ccccc1C(=O)N1CCOC2(CCCN(C(C)=O)C2)C1 (stereo not drawn)
  cytotoxicity at 70.5 h: -12.3%

## CCNC(=O)N1CC[C@H]2CC(=O)N(C3CCCCC3)CC[C@H]2C1
  cytotoxicity at 70.5 h: -5.33%

## Cc1cc(NC(=O)CN2CCn3c(C)nnc3C2)no1
  cytotoxicity at 70.5 h: -7.43%

## CCCNC1(c2ccc(Cl)cc2)CCOCC1
  cytotoxicity at 70.5 h: 6.67%

## CC(=O)N1CCCCC1c1ncnn1-c1ccc2nc(C)sc2c1 (stereo not drawn)
  cytotoxicity at 70.5 h: -4.05%

## NC(=O)c1cnn2c(C3CCCN(C4CCOCC4)C3)ccnc12 (stereo not drawn)
  cytotoxicity at 70.5 h: -0.336%

## CNc1cccc(C2CCCN(C(=O)c3cncs3)C2)n1 (stereo not drawn)
  cytotoxicity at 70.5 h: -4.52%

## CCc1n[nH]c(C2CN(Cc3csc(COC)n3)CCO2)n1 (stereo not drawn)
  cytotoxicity at 70.5 h: -7.86%

## O=C(O)c1cc(S(=O)(=O)Nc2cc(F)ccc2F)cc2c1OCCO2
  cytotoxicity at 70.5 h: -3.33%

## CN(Cc1ccc(CCC(C)(C)O)cc1)Cc1cccnc1
  cytotoxicity at 70.5 h: -11.5%

## CCC(CO)N(Cc1ccsc1)Cc1ccccc1C#N (stereo not drawn)
  cytotoxicity at 70.5 h: -11.3%

## c1cc2cc[nH]c2c(CC2CN(Cc3cscn3)C2)n1
  cytotoxicity at 70.5 h: -3.59%

## COc1ncnc2c1CCN(c1cccc(F)c1)CC2
  cytotoxicity at 70.5 h: -6.07%

## COc1ncccc1C(=O)N1CCCC(n2ccnc2)C1 (stereo not drawn)
  cytotoxicity at 70.5 h: -1.13%

## O[C@H]1[C@H](NCCc2ccccn2)c2ccccc2C12CCNCC2
  cytotoxicity at 70.5 h: 20.6%

## CCc1nc(CN2CCOC(Cn3nc(C)nc3C)C2)no1 (stereo not drawn)
  cytotoxicity at 70.5 h: 3.11%

## N#CCCN(C(=O)CN1CCCC1Cc1ccccc1)c1ccccc1 (stereo not drawn)
  cytotoxicity at 70.5 h: 0.569%

## CCOCc1ccc(CNc2nc(OC)ncc2Cl)cc1
  cytotoxicity at 70.5 h: -10.8%

## CN1CCCN(C[C@@H]2CN(c3nc(C(N)=O)cs3)C[C@@H]2CO)CC1
  cytotoxicity at 70.5 h: 4.88%

## Cc1nccn1CCCC(=O)N1CCCC(c2noc(C(C)C)n2)C1 (stereo not drawn)
  cytotoxicity at 70.5 h: -2.96%

## COC(=O)c1ccc(N2CCN(C(=O)CCCc3cn[nH]c3)CC2)cc1
  cytotoxicity at 70.5 h: -2.65%

## Cc1nc(C)c(CC(=O)NCc2ccc(F)cc2)s1
  cytotoxicity at 70.5 h: -11.4%

## Cc1ccc(N2CCC3(CCN(Cc4csc(C)n4)CC3)CC2)nn1
  cytotoxicity at 70.5 h: -6.42%

## COCCCS(=O)(=O)N1CCN(C(=O)CO)CC1
  cytotoxicity at 70.5 h: -0.333%

## O=C1CCNc2ccc(F)cc2CN1Cc1ccco1
  cytotoxicity at 70.5 h: 2.21%

## O=C(c1cc[nH]n1)N1CC[C@@H]2CN(Cc3ccncc3)S(=O)(=O)[C@@H]2CC1
  cytotoxicity at 70.5 h: -5.13%

## Cn1ncc2c1CCCN(C(=O)C1CCC1)C2
  cytotoxicity at 70.5 h: -2.82%

## CC(=O)N1CCC2(CC1)CCN(C(=O)c1ccc(F)c(C(F)(F)F)c1)C2
  cytotoxicity at 70.5 h: -7.91%

## CC1CCC(O)(CSc2nnnn2C2CC2)CC1 (stereo not drawn)
  cytotoxicity at 70.5 h: -1.68%

## Cc1nn(C)cc1-c1nn2c(C(F)(F)F)nnc2s1
  cytotoxicity at 70.5 h: -9.41%

## CC(=O)Nc1ccc(CCC2(NC(=O)C3CC3)CCCCC2)cn1
  cytotoxicity at 70.5 h: -0.0205%

## Cc1ccc(S(=O)(=O)N2C[C@H]3C[C@H](NC(=O)c4cc(C)no4)[C@H]3C2)cc1
  cytotoxicity at 70.5 h: -3.09%

## Cc1ccc(-c2n[nH]cc2CNCC2CCc3nnc(C)n3C2)cc1 (stereo not drawn)
  cytotoxicity at 70.5 h: -0.696%

## Cc1cccc(C(=O)NC2CCN(c3cnn(C)c3)C2=O)n1 (stereo not drawn)
  cytotoxicity at 70.5 h: 12.5%

## CC(O)(CNC(=O)NCCc1ccc2c(c1)CCO2)c1ccsc1 (stereo not drawn)
  cytotoxicity at 70.5 h: 1.66%

## O=C(NCC1CC1)c1cc2c(s1)CCN2c1ncccn1
  cytotoxicity at 70.5 h: -0.353%

## O=C(Cc1cn2ccsc2n1)N1CCOCC(O)(CN2CCCC2)C1 (stereo not drawn)
  cytotoxicity at 70.5 h: -4.72%

## CCc1nc(-c2ccc(C(=O)N3CCC4(CC3)OCCO4)cc2)no1
  cytotoxicity at 70.5 h: -21.2%

## N[C@@H]1c2ccccc2C2(CCN(C(=O)c3ccc(=O)[nH]c3)CC2)[C@H]1O
  cytotoxicity at 70.5 h: -6.66%

## COc1cccc(CN2CC(O)CN(C(=O)C(C)(C)C)CC2=O)c1OC (stereo not drawn)
  cytotoxicity at 70.5 h: 50.4%

## COc1ccc(C(O)CNc2c(C#N)c(=O)n(C)c(=O)n2C)cc1 (stereo not drawn)
  cytotoxicity at 70.5 h: 3.78%

## Cc1ccnc(NCc2ccccc2N2CCOCC2)n1
  cytotoxicity at 70.5 h: -16.7%

## Cc1ccc(CN2CCc3ncnc(-c4ccc(F)cc4)c3CC2)o1
  cytotoxicity at 70.5 h: -14.6%

## COc1c(CNCc2ccccc2Cn2cncn2)c(C)nn1C
  cytotoxicity at 70.5 h: -1.28%

## Cc1cc(CN2CCCN(c3ccc(C#N)cc3)CC2)no1
  cytotoxicity at 70.5 h: -7.74%

## Cc1ccc(C(=O)NCCN2CCOCC2)cc1N(C)S(C)(=O)=O
  cytotoxicity at 70.5 h: 1.25%

## O=C1CCCN1c1cccc(CNCc2nc(C3CC3)no2)c1
  cytotoxicity at 70.5 h: 8.67%

## Cc1cc(C)n(CC(C)NC(=O)NCc2c(C)cc(C)[nH]c2=O)n1 (stereo not drawn)
  cytotoxicity at 70.5 h: 14.3%

## O=C(c1ncncc1Cl)N1CCC2(CCCC2)CC1
  cytotoxicity at 70.5 h: -5.92%
